Tests used:
adult stable fly = experiment: In vitro efficacy against adult stable fly; settings: Stomoxys calcitrans
From the text: Tables XIX-XXI summarize in vitro studies with A83543A and A83543D.

Spodoptera eridania = experiment: Outdoor pot tests against Southern armyworm; assay type: in vivo
From the text: Table XV compares the effectiveness and persistence of A83543A treatment with that of methomyl in outdoor pot tests against Southern armyworm.

adult BW (boll weevil) = experiment: Topical test against adult BW; assay type: in vivo; settings: Anthonomus grandis, 72 h, 3 days
Experimental: (§1) Each test compound was formulated by dissolving the compound in an acetone/alcohol (1:1) mixture containing 23 g of "Toximul R" (sulfonate/nonionic emulsifier blend) and 13 g of "Toximul S" (sulfonate/nonionic emulsifier blend) per liter. These mixtures were then diluted with water to give the indicated concentrations.
(§2) Additional insects were evaluated using similar formulations and evaluation procedures, with the exceptions noted.
(§3) After standard exposure periods, percent mortality was evaluated. The following abbreviations are used:
^a One replicate; observed 3 days after treatment
^b Formulated A83543A (1 mL) poured over adult insects in a Petri

SAW (Southern armyworm) = experiment: Greenhouse test against SAW; assay type: in vivo; settings: Spodoptera eridania, squash
Experimental: as §1
(§4) Two-spotted spider mites (Tetranychus urticae Koch) and cotton or melon aphids (Aphis gossypii Glover) were introduced on squash cotyledons and allowed to establish on both leaf surfaces. Other plants in the same treatment pot were left uninfested. The leaves were then sprayed with 5 mL of test solution using a DeVilbiss atomizing sprayer at 10 psi. Both surfaces of the leaves were covered until runoff and then allowed to dry for one hour. Two uninfested leaves were then excised and placed into a Petri dish containing Southern armyworm (Spodoptera eridania Cramer).
(§5) After standard exposure periods, percent mortality was evaluated.

Nematospiroides dubius = experiment: Anthelmintic activity in mice experimentally infected with Nematospiroides dubius; assay type: in vivo; settings: single oral gavage at 500 mg/kg
adult stable fly (ASF) = experiment: Sheep systemic test, adult stable fly; assay type: in vivo; settings: Stomoxys calcitrans, 24 h
Experimental: (§6) Blood is drawn from the guinea pigs at 30 minutes except as noted, and the samples of blood are centrifuged. Dental wicks are saturated with the blood serum, and then exposed in Petri dishes to adult stable flies; blow fly larvae are exposed in test tubes. After 24 and 48 hours, the insects are examined, and the number of dead are counted. The results of the tests are recorded as the percent of the insects which are killed.
(§7) Tests are carried out in sheep using the test method described supra in the Guinea Pig Test description. Test compound is administered by intraperitoneal or intravenous injection or intraruminally; blood samples are drawn at 24 hours in these tests.

guinea pigs = experiment: Toxicity to the host animal, guinea pig systemic test; assay type: in vivo; set-up: key: N: none
Experimental: Adult guinea pigs are used in this test system. The compounds to be tested are dissolved in aqueous polyvinyl pyrrolidone or in polyethylene glycol 200, and an appropriate amount of the solution is administered either orally or by intraperitoneal injection.
as §6

[1] = test system: CBW (cotton bollworm) ova; experiment: Topical treatment of CBW eggs (ova); assay type: in vivo, Heliothis zea; settings: 144 h, 6 days
Experimental: as §1, §2, §3
^b Mean of two replicates tested
^e Eggs topically treated with A83543A and held until control eggs

[2] = test system: SM (twospotted spider mite); experiment: Greenhouse test against SM; assay type: in vivo; settings: Tetranychus urticae
Experimental: as §1, §4, §5

[3] = Anthelmintic activity in sheep; assay type: in vivo
cabbage looper = experiment: Field trial, cabbage looper on sprouting broccoli; assay type: in vivo
Experimental: A83543A was evaluated in field trials.

blow fly larvae (LBF) = experiment: Sheep systemic test, blow fly larvae; assay type: in vivo
Experimental: as §6, §7

For `CC[C@H]1CCC[C@H](O[C@H]2CC[C@H](N(C)C)[C@@H](C)O2)[C@@H](C)C(=O)C2=C[C@@H]3[C@@H](C=C[C@@H]4C[C@@H](O[C@@H]5O[C@@H](C)[C@H](OC)[C@@H](OC)[C@H]5OC)C[C@@H]34)[C@@H]2CC(=O)O1` [A83543A], the mortality at 0.5 ppm (adult stable fly; 24 hour) was 0%, the mortality at 0.5 ppm (adult stable fly; 48 hour) was 10% and the mortality at 1 ppm (adult stable fly; 24 hour) was 10%. The mortality at 1 ppm (adult stable fly; 48 hour) was 60%, the mortality at 2 ppm (adult stable fly; 24 hour) was 70% and the mortality at 2 ppm (adult stable fly; 48 hour) was 90%. The mortality at 5 ppm (adult stable fly; 24 hour) was 80%, the mortality at 5 ppm (adult stable fly; 48 hour) was 100% and the mortality at 10 ppm (adult stable fly; 24 hour) was 100%. The mortality at 10 ppm (adult stable fly; 48 hour) was 90%, the mortality at 25 ppm (adult stable fly; 24 hour) was 100% and the mortality at 25 ppm (adult stable fly; 48 hour) was 100%. For the same molecule, the mortality at 50 ppm (adult stable fly; 24 hour) was 100%, the mortality at 50 ppm (adult stable fly; 48 hour) was 100% and the mortality at 100 ppm (adult stable fly; 24 hour) was 100%. The mortality at 100 ppm (adult stable fly; 48 hour) was 100%, the mortality at 63 ppm (Spodoptera eridania; 24 h, 1 day after treatment) was 100% and the mortality at 125 ppm (Spodoptera eridania; 24 h, 1 day after treatment) was 100%. It also gave a mortality at 250 ppm (Spodoptera eridania; 24 h, 1 day after treatment) of 100%, a mortality at 500 ppm (Spodoptera eridania; 24 h, 1 day after treatment) of 100% and a mortality at 63 ppm (Spodoptera eridania; 120 h, 5 days after treatment) of 88%. For the same molecule, the mortality at 125 ppm (Spodoptera eridania; 120 h, 5 days after treatment) was 88%, the mortality at 250 ppm (Spodoptera eridania; 120 h, 5 days after treatment) was 95% and the mortality at 500 ppm (Spodoptera eridania; 120 h, 5 days after treatment) was 100%. The mortality at 63 ppm (Spodoptera eridania; 168 h, 7 days after treatment) was 90%, the mortality at 125 ppm (Spodoptera eridania; 168 h, 7 days after treatment) was 95% and the mortality at 250 ppm (Spodoptera eridania; 168 h, 7 days after treatment) was 100%. The mortality at 500 ppm (Spodoptera eridania; 168 h, 7 days after treatment) was 100%, the mortality at 63 ppm (Spodoptera eridania; 336 h, 14 days after treatment) was 5% and the mortality at 125 ppm (Spodoptera eridania; 336 h, 14 days after treatment) was 90%. For the same molecule, the mortality at 250 ppm (Spodoptera eridania; 336 h, 14 days after treatment) was 100%, the mortality at 500 ppm (Spodoptera eridania; 336 h, 14 days after treatment) was 100% and the inhibition at 1 ppm (adult BW (boll weevil); 1.00 ppm) was 0%. For the same molecule, the inhibition at 5 ppm (adult BW (boll weevil); 5.00 ppm) was 20%, the inhibition at 10 ppm (adult BW (boll weevil); 10.00 ppm) was 20% and the inhibition at 50 ppm (adult BW (boll weevil); 50.00 ppm) was 100%. The inhibition at 100 ppm (adult BW (boll weevil); 100.0 ppm) was 100%, the inhibition at 1.9 ppm (SAW (Southern armyworm); 1.9 ppm) was 0% and the inhibition at 3.9 ppm (SAW (Southern armyworm); 3.9 ppm) was 20%. For the same molecule, the inhibition at 7.8 ppm (SAW (Southern armyworm); 7.8 ppm) was 20%, the inhibition at 15.63 ppm (SAW (Southern armyworm); 15.63 ppm) was 40% and the inhibition at 31.25 ppm (SAW (Southern armyworm); 31.25 ppm) was 55%. The inhibition at 62.5 ppm (SAW (Southern armyworm); 62.5 ppm) was 100%, the inhibition at 125 ppm (SAW (Southern armyworm); 125 ppm) was 100% and the inhibition at 250 ppm (SAW (Southern armyworm); 250 ppm) was 100%. The anthelmintic activity (Nematospiroides dubius) was “did not show anthelmintic activity”, the mortality at 1 mg/kg (adult stable fly (ASF); 1.0 mg/kg IV) was 10% and the mortality at 10 mg/kg (adult stable fly (ASF); 10 mg/kg IP) was 0%. It also gave a mortality at 10 mg/kg (adult stable fly (ASF); 10 mg/kg IR) of 0%, a mortality at 30 mg/kg (adult stable fly (ASF); 30 mg/kg IP) of 0% and a mortality at 30 mg/kg (adult stable fly (ASF); 30 mg/kg IR) of 30%. For the same molecule, the mortality at 50 mg/kg (adult stable fly (ASF); 50 mg/kg IR) was 70%, the mortality at 25 mg/kg (adult stable fly (ASF); 2 × 25 mg/kg IR) was 90% and the Tox (guinea pigs; 10 mg/kg IP) was “N”. For the same molecule, the Tox (guinea pigs; 20 mg/kg IP) was “N”, the Tox (guinea pigs; 30 mg/kg IP) was “N” and the Tox (guinea pigs; 50 mg/kg IP) was “N”. For the same molecule, the Tox (guinea pigs; 50 mg/kg OR (oral)) was “N”, the inhibition at 10 ppm ([1]; 10.00 ppm) was 0% and the inhibition at 50 ppm ([1]; 50.00 ppm) was 0%. The inhibition at 100 ppm ([1]; 100.00 ppm) was 30%, the inhibition at 6.25 ppm ([2]; bushbean, 6.25 ppm) was 0% and the inhibition at 12.5 ppm ([2]; bushbean, 12.5 ppm) was 10%. For the same molecule, the inhibition at 25 ppm ([2]; bushbean, 25 ppm) was 30%, the inhibition at 50 ppm ([2]; bushbean, 50 ppm) was 80% and the inhibition at 100 ppm ([2]; bushbean, 100 ppm) was 100%. The inhibition at 31.25 ppm ([2]; squash, 31.25 ppm) was 0%, the inhibition at 62.5 ppm ([2]; squash, 62.5 ppm) was 20% and the inhibition at 125 ppm ([2]; squash, 125 ppm) was 40%. The inhibition at 250 ppm ([2]; squash, 250 ppm) was 70%, the anthelmintic activity ([3]; single intraperitoneal dose of 50 mg/kg) was “did not show anthelmintic activity” and the anthelmintic activity ([3]; single intraruminal dose of 50 mg/kg) was “did not show anthelmintic activity”. The “activity in field trials” value (cabbage looper) was “showed activity”, the “LBF activity (% mortality)” value (blow fly larvae (LBF); 1.0 mg/kg IV) was 25% and the “LBF activity (% mortality)” value (blow fly larvae (LBF); 10 mg/kg IP, 1440 min) was 0%. The “LBF activity (% mortality)” value (blow fly larvae (LBF); 10 mg/kg IR, 1440 min) was 0%, the “LBF activity (% mortality)” value (blow fly larvae (LBF); 30 mg/kg IP, 1440 min) was 80% and the “LBF activity (% mortality)” value (blow fly larvae (LBF); 30 mg/kg IR, 1440 min) was 100%. The “LBF activity (% mortality)” value (blow fly larvae (LBF); 50 mg/kg IP, 1440 min) was 20%, the “LBF activity (% mortality)” value (blow fly larvae (LBF); 50 mg/kg IR, 1440 min) was 100% and the “LBF activity (% mortality)” value (blow fly larvae (LBF); 2 × 25 mg/kg IR, 1440 min) was 100%.

From US5362634A, “Process for producing A83543 compounds” (DowElanco, priority 1991, dated 1994)
